Test systems include TK-10; CCRF-CEM; OVCAR-4; T47D; HOP-62; SR; OVCAR-5; HCC 2998; DU-145; SF-539; MDA-N; HCT-116; SK-MEL-5; NCI-H460; HCT-15; LOX IMVI; CAKI-1; UO-31; SK-OV-3.
Holding throughout (experiment): DTP human tumour cell line panel, 48 h

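Tested at 5 concentrations; 48 h exposure; 96-well plates; endpoints linearly interpolated, else capped at highest concentration. GI50 = concentration required for 50% inhibition of growth.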 Active and inactive are the calls of the source. Rule as the data show it: active = GI50 up to about 1.1 µM and inactive = higher.

Usually GI50 stands for the concentration giving 50% growth inhibition.

For the compound `CCc1nc2c(n1CC)C(=O)c1ccccc1C2=O`, the GI50 in the assay on TK-10 was 22.1 µM (inactive); in the assay on CCRF-CEM, 45.7 µM (inactive); in the assay on OVCAR-4 it was 34.9 µM (inactive); in the assay on T47D it was 18.3 µM (inactive); in the assay with HOP-62, 42.5 µM (inactive); in the assay on SR it was 37.4 µM (inactive). Also, the GI50 with OVCAR-5 was 47.2 µM (inactive); in the assay on HCC 2998, 42.1 µM (inactive); with DU-145, 66.5 µM (inactive); in the assay on SF-539 it was 44.4 µM (inactive); with MDA-N it was > 10 µM (inactive); in the assay with HCT-116, > 10 µM (inactive). Moreover, the figures for the GI50 in the assay with SK-MEL-5, with NCI-H460 and in the assay with HCT-15 were > 10 µM (inactive), 39.1 µM (inactive) and 38.3 µM, respectively.
Turning to `CC(=N/NC(=S)N1CCCCC1)/C(=N\NC(=S)N1CCCCC1)c1ccccc1`, the GI50 with TK-10 was 1.74 µM (inactive); with OVCAR-4, 1.85 µM (inactive); in the assay on T47D, 2.12 µM (inactive); in the assay on HOP-62, 2.04 µM (inactive); in the assay with LOX IMVI, 3.43 µM (inactive); with CAKI-1, 2.04 µM (inactive). Further, the GI50 with OVCAR-5 was 2 µM (inactive); in the assay with HCC 2998, 2.3 µM (inactive); in the assay with DU-145 it was 0.512 µM (active); in the assay with SF-539 it was 2.67 µM (inactive); in the assay with MDA-N it was 2.61 µM (inactive); in the assay with HCT-116, 2.53 µM (inactive). Also, the GI50 was 1.96 µM (inactive) in the assay with SK-MEL-5; 1.76 µM (inactive) in the assay on UO-31; 1.91 µM (inactive) in the assay with NCI-H460; 1.95 µM (inactive) with SK-OV-3; 2.1 µM in the assay with HCT-15.
Take `COC(=O)C(C)(C)[C@@H]1OC(=O)N(S(=O)(=O)c2c(C)cc(C)cc2C)[C@H]1C(C)C`: the GI50 with TK-10 was > 100 µM (inactive); in the assay on CCRF-CEM it was 75.9 µM (inactive); in the assay with OVCAR-4, 98.2 µM (inactive); with T47D, 63.5 µM (inactive); with HOP-62 it was > 100 µM (inactive); in the assay on SR it was 75.7 µM (inactive). For the same compound, the GI50 was 78 µM (inactive) with LOX IMVI; > 100 µM (inactive) with OVCAR-5; > 100 µM (inactive) in the assay with HCC 2998; > 100 µM (inactive) with DU-145; > 100 µM (inactive) with SF-539; > 100 µM (inactive) in the assay with MDA-N. The GI50 was 52.8 µM (inactive) in the assay on HCT-116; 41.8 µM (inactive) in the assay with SK-MEL-5; > 100 µM (inactive) with UO-31; 55 µM (inactive) with NCI-H460; > 100 µM (inactive) in the assay on SK-OV-3; over 100 µM with HCT-15.
As to `O=C(NCCCNCCCCNCCCNC(=O)C(F)(F)F)C(F)(F)F`, the GI50 in the assay on TK-10, in the assay on CCRF-CEM, in the assay on OVCAR-4, with T47D, in the assay with HOP-62 and in the assay with LOX IMVI was > 100 µM (inactive) throughout. Moreover, the GI50 in the assay with CAKI-1 was 20 µM (inactive); in the assay on OVCAR-5, > 100 µM (inactive); with HCC 2998 it was 76.4 µM (inactive); in the assay with DU-145 it was > 100 µM (inactive); in the assay with SF-539 it was > 100 µM (inactive); in the assay with MDA-N it was > 100 µM (inactive). Further, the GI50 with HCT-116 was > 100 µM (inactive); in the assay on SK-MEL-5, > 100 µM (inactive); in the assay with UO-31 it was > 100 µM (inactive); with NCI-H460, > 100 µM (inactive); in the assay on SK-OV-3 it was > 100 µM (inactive); with HCT-15 it was over 100 µM.
As for `CC(=O)OCC1OC(n2c3c(c(-c4ccc(Cl)cc4)c(C#N)c2=S)CCCC3)C(OC(C)=O)C(OC(C)=O)C1OC(C)=O` (configuration not stated), the GI50 in the assay on TK-10 is 44.9 µM (inactive); in the assay with CCRF-CEM it was 40.7 µM (inactive); in the assay on OVCAR-4 it was 25.5 µM (inactive); with T47D, 36.7 µM (inactive); with HOP-62 it was 97.3 µM (inactive); with SR it was > 100 µM (inactive). Also, the GI50 was 44.9 µM (inactive) in the assay with LOX IMVI; > 100 µM (inactive) in the assay with OVCAR-5; > 100 µM (inactive) with HCC 2998; 42.6 µM (inactive) with DU-145; 74.5 µM (inactive) in the assay with SF-539; 42.8 µM (inactive) in the assay with MDA-N. Moreover, the GI50 is 33.3 µM (inactive) in the assay on HCT-116; 16.7 µM (inactive) in the assay on SK-MEL-5; 4.4 µM (inactive) in the assay with UO-31; 42.5 µM (inactive) in the assay on NCI-H460; 75.2 µM (inactive) in the assay on SK-OV-3; 61.2 µM in the assay on HCT-15.
With `COCC1OC(N2C(=O)NC(=O)[C@@H]3C=C4CCCCC4=C[C@@H]32)C(OC)C1OC` (some centres not stated), the GI50 in the assay with TK-10 is > 100 µM (inactive); in the assay with OVCAR-4, > 100 µM (inactive); with T47D, > 100 µM (inactive); with HOP-62 it was > 100 µM (inactive); in the assay with SR, 19.1 µM (inactive); with LOX IMVI, > 100 µM (inactive). Besides, the GI50 was > 100 µM (inactive) in the assay with OVCAR-5; > 100 µM (inactive) in the assay with DU-145; > 100 µM (inactive) in the assay on SF-539; > 100 µM (inactive) in the assay with MDA-N; > 100 µM (inactive) with HCT-116; 98.9 µM (inactive) in the assay with UO-31. Moreover, the values for the GI50 in the assay with NCI-H460, in the assay on SK-OV-3 and in the assay with HCT-15 were > 100 µM (inactive), > 100 µM (inactive) and over 100 µM, respectively.
With `COc1ccc(/C=C2\NC(=S)N(/C=C3\C(=O)Oc4ccccc4C3=O)C2=O)cc1OC`, the GI50 in the assay with TK-10 was > 100 µM (inactive); in the assay on CCRF-CEM it was 45 µM (inactive); in the assay with OVCAR-4 it was > 100 µM (inactive); in the assay on T47D it was > 100 µM (inactive); with HOP-62 it was > 100 µM (inactive); in the assay with LOX IMVI, > 100 µM (inactive). Also, the GI50 with CAKI-1, with OVCAR-5, with HCC 2998, in the assay on DU-145, in the assay on SF-539 and in the assay with MDA-N was > 100 µM (inactive) in each case. Further, the GI50 in the assay on HCT-116 was > 100 µM (inactive); in the assay on SK-MEL-5, > 100 µM (inactive); with UO-31, 54.6 µM (inactive); in the assay on NCI-H460 it was > 100 µM (inactive); in the assay on SK-OV-3 it was > 100 µM (inactive); in the assay with HCT-15, 93.5 µM.
For the compound `O=P(O)(O)CC1OC(CO)C(O)C1O` (configuration not stated), the GI50 with TK-10, with CCRF-CEM, in the assay with OVCAR-4, with T47D, in the assay with LOX IMVI and in the assay with CAKI-1 was > 100 µM (inactive) in each case. Further, the GI50 in the assay with OVCAR-5, in the assay on HCC 2998, in the assay with DU-145, in the assay on SF-539, in the assay on MDA-N and in the assay on HCT-116 was > 100 µM (inactive) throughout. Also, the GI50 in the assay with SK-MEL-5 is > 100 µM (inactive); in the assay on UO-31 it was > 100 µM (inactive); with NCI-H460, > 100 µM (inactive); with SK-OV-3, > 100 µM (inactive); with HCT-15 it was over 100 µM.
For the compound `CCSC1=N/C(=C\c2ccco2)C(Cl)=N1`, the GI50 in the assay on TK-10, in the assay with CCRF-CEM, in the assay on T47D, with HOP-62, in the assay with SR and in the assay on LOX IMVI was > 100 µM (inactive) in each case. Moreover, the GI50 with CAKI-1, with OVCAR-5, in the assay on DU-145, in the assay with SF-539, in the assay with MDA-N and with HCT-116 was > 100 µM (inactive) each time. In addition, the GI50 is > 100 µM (inactive) in the assay on SK-MEL-5; > 100 µM (inactive) in the assay with UO-31; > 100 µM (inactive) with NCI-H460; > 100 µM (inactive) in the assay on SK-OV-3; over 100 µM with HCT-15.
In the case of `CC1=NC(C)(C)N(O)C1(C)C`, the GI50 with TK-10, in the assay on CCRF-CEM, in the assay with OVCAR-4, in the assay on T47D, in the assay on HOP-62 and in the assay with SR was > 100 µM (inactive) in each case. In addition, the GI50 with LOX IMVI, in the assay with OVCAR-5, in the assay on HCC 2998, in the assay on DU-145, in the assay on SF-539 and in the assay with MDA-N was > 100 µM (inactive) in each case. Besides, the GI50 in the assay with HCT-116 was > 100 µM (inactive); with SK-MEL-5, > 100 µM (inactive); in the assay with UO-31, > 100 µM (inactive); in the assay on NCI-H460, > 100 µM (inactive); in the assay on SK-OV-3 it was > 100 µM (inactive); in the assay on HCT-15, over 100 µM.
Take `COc1ccc(C2CC(c3c(O)ccc4ccccc34)=NN2c2ccc([N+](=O)[O-])cc2[N+](=O)[O-])cc1OC` (configuration not stated): the GI50 in the assay with TK-10 was 24.3 µM (inactive); with CCRF-CEM, 6.03 µM (inactive); with OVCAR-4 it was 16.6 µM (inactive); in the assay on T47D, 6.25 µM (inactive); with HOP-62, 21.5 µM (inactive); in the assay on LOX IMVI, 25.9 µM (inactive). Moreover, the GI50 in the assay with CAKI-1 was 16.9 µM (inactive); with OVCAR-5, 24.3 µM (inactive); with HCC 2998 it was 28.5 µM (inactive); in the assay with DU-145, 30.3 µM (inactive); with SF-539, 26.1 µM (inactive); with MDA-N, 28.9 µM (inactive). Also, the GI50 is 15.8 µM (inactive) with HCT-116; 10.1 µM (inactive) with SK-MEL-5; 9.25 µM (inactive) with UO-31; 14.6 µM (inactive) in the assay with NCI-H460; 26.4 µM (inactive) with SK-OV-3; 27 µM with HCT-15.
As to `CCNC1CC(C(C)(C)NCC)CC=C1C` (configuration not stated), the GI50 with TK-10, in the assay with CCRF-CEM, in the assay with OVCAR-4, with T47D, with HOP-62 and in the assay with SR was > 100 µM (inactive) throughout. For the same compound, the GI50 in the assay with LOX IMVI, with OVCAR-5, in the assay with HCC 2998, with DU-145, in the assay with SF-539 and in the assay with MDA-N was > 100 µM (inactive) each time. In addition, the GI50 is > 100 µM (inactive) in the assay with HCT-116; > 100 µM (inactive) in the assay with SK-MEL-5; > 100 µM (inactive) with UO-31; > 100 µM (inactive) with NCI-H460; > 100 µM (inactive) in the assay with SK-OV-3; over 100 µM with HCT-15.

The values are drawn from ChEMBL document CHEMBL1201862, “PubChem BioAssay data set” (2004).
